Reference: patent EP3581565A1, “PHENYL BENZYL ETHER DERIVATIVE AND PREPARATION METHOD AND APPLICATION THEREOF” (Beijing Zhibo Bio-Medical Technology Co., Ltd., priority 2018, dated 2019)

Assays:
[1] = logD of labeled ligands; assay type: physicochemical
[2] = biological target: T1, Aβ1-42 aggregates (Homo sapiens, UniProt P05067); assay: In-vitro competitive binding experiment (Ki determination) with Aβ1-42 aggregates
T1 construct: Preparing receptor Aβ1-42 proteins according to the existing method
Procedure: 4, the compounds are separated after balancing, and the inhibition constant (Ki) is calculated by determining radioactivity.
• (1) Preparing 41 of PBS (0.2M) buffer solution with pH=7.4; • (2) Preparing radioligand [^125I]

T1 sequence (P05067 672-713 limits assumed): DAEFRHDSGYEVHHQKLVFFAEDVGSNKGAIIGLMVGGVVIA

| logD [1] | Ki [2] | Structure (SMILES) |
| --- | --- | --- |
| [^18F] 53a (logD= 3.65 ±0.04) |  | COc1ccc(COc2ccc(OCC[18F])cc2)cc1 [[^18F] 53a] |
| [^18F]44a(logD = 3.05 ± 0.08) |  | COc1ccc(OCc2ccc(OCC[18F])cc2)cc1 [[^18F]44a] |
| [^125I]31a(logD = 3.96± 0.22) |  | FCCOc1ccc(OCc2ccc([125I])cc2)cc1 [[^125I]31a] |
| [^125I]4 (logD = 4.00± 0.08) |  | COc1ccc(OCc2ccc([125I])cc2)cc1 [[^125I]4] |
|  | 163 ± 23 nM | Brc1ccc(OCc2ccc(I)cc2)cn1 [Compound 57, 2-bromo-5-((4-iodobenzyl)oxy) pyridine] |
| [^125I]22(logD = 2.89± 0.09) |  | CN(C)c1ccc(OCc2ccc([125I])cc2)cc1 [[^125I]22] |
| [^125I]24 (logD = 4.16± 0.29) |  | COc1ccc(COc2ccc([125I])cc2)cc1 [[^125I]24] |
|  | 880 ± 72.4 nM | Clc1ccc(OCc2ccc(I)cc2)cn1 [Compound 55, 2-chloro-5-((4-iodobenzyl)oxy) pyridine] |
